# Results published in ChEMBL document CHEMBL5550088, “Design, synthesis and evaluate of indazolylaminoquinazoline derivatives as potent Tropomyosin receptor kinase (TRK) inhibitors” (Bioorg Med Chem, 2024).
# What was measured:
# [1] = target: High affinity nerve growth factor receptor (Homo sapiens, UniProt P04629); experiment: Inhibition of wild type TRKA (unknown origin) preincubated for 30 mins followed by ATP and U Light-poly GT addition and measured after 2 hrs by multilabel plate reader method
# BaF3 [2] = experiment: Antiproliferative activity against mouse BaF3 cells harbouring ETV6-TRKA wildtype assessed as cell viability measured after 72 hrs by CCK-8 method; conditions: BaF3, 72 h
# BaF3 [3] = experiment: cells; conditions: Mus musculus, BaF3, 72 h
# BaF3 [4] = experiment: Antiproliferative activity against mouse BaF3 cells harbouring ETV6-TRKB wildtype assessed as cell viability measured after 72 hrs by CCK-8 method; conditions: BaF3, 72 h
# BaF3 [5] = experiment: cells; conditions: Mus musculus, BaF3, 72 h; remark: listed apart in the source
# High affinity nerve growth factor receptor, sequence (P04629 whole entry): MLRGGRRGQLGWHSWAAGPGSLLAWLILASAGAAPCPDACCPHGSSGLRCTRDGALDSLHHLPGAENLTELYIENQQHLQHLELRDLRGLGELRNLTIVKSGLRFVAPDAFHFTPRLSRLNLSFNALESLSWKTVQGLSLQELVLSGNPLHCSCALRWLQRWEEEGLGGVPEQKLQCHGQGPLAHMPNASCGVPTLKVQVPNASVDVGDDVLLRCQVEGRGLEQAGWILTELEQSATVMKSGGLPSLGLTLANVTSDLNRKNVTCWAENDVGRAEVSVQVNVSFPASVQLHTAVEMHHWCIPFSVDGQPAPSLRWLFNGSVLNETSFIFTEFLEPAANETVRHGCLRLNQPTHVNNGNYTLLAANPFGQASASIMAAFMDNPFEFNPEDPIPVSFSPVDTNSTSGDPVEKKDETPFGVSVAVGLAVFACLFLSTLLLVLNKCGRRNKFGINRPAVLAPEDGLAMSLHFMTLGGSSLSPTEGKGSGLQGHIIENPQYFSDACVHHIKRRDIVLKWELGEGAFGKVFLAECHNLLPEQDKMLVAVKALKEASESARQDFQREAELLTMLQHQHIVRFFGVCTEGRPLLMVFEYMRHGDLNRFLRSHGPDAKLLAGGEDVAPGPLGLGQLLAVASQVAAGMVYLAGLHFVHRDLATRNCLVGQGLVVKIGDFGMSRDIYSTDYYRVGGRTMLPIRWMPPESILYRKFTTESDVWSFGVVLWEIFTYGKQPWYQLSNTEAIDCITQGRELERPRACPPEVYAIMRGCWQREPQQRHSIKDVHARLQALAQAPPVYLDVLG
IC50 [1],IC50 (BaF3 [2]),IC50 (BaF3 [3]),IC50 (BaF3 [4]),IC50 (BaF3 [5]),Structure (SMILES)
2.3 nM,–,–,–,–,CN(C)C1CCN(c2ccc3c(Nc4n[nH]c5ccc(Cc6cc(F)cc(F)c6)cc45)ncnc3c2)C1 (stereo unspecified)
–,14.6 nM,2890 nM,4.9 nM,755 nM,O=C(Nc1cnn2ccc(N3CCC[C@@H]3c3cc(F)ccc3F)nc12)N1CC[C@H](O)C1 [LAROTRECTINIB]
1.9 nM,–,–,–,–,CN(C)C1CCN(c2ccc3c(Nc4n[nH]c5ccc(Cc6cc(F)cc(F)c6)cc45)n[nH]c3c2)C1 (stereo unspecified)
